A short description of data set [1]: in vitro. It counts as in vitro ADME, human. The source says:
(§1) A fundamental evaluation in drug development is the assessment of absorption, distribution, metabolism, excretion, and pharmacokinetics (ADME/PK) (Eddershaw et al., 2000, Drug Discovery Today 5(9): 409-414). […] Drug stability upon exposure to human liver microsomes and liver S9 cellular fractions is a common in vitro assay to approximate in vivo, liver-based drug metabolism (Richardson et al., 2016 Drug Metabolism Letters 10:83-90). First-pass metabolism is also often approximated in vitro using intestinal microsome and cellular S9 fractions (Hatley et al., 2017, Biopharmaceuticals & Drug Disposition, 38(2):155-160). Further, it is well known that human serum, and particularly circulating serum esterases can contribute to systemic drug metabolism (Williams, F M 1987, Pharmacology and Therapeutics, 34:99-109). Many pharmacological agents are classified as prodrugs, as they undergo metabolic transformation in vivo upon administration to release the active drug compound into the systemic compartment (Zawilska J B, et al. 2013, Pharmacological Reports, 65:1-14). Psilocybin, a serotonergic psychedelic agent, is well known prodrug that is metabolized into the psychoactive product, psilocin (Dinis-Oliveira, R J 2017, Drug Metabolism Reviews, 49(1):84-91). To evaluate the capacity of test molecules to similarly serve as prodrugs of psilocin, time-dependent, metabolic stability assays using human AB serum, human intestinal microsomes (HIM), human intestinal S9 fractions (HIS9), human liver microsomes (HLM), human liver S9 fractions (HLS9), human alkaline phosphatase, and porcine esterase were performed. […] Liquid chromatography coupled mass spectrometry (LC-MS) was employed to track the conversion of the test molecules into psilocin. All intestinal and liver fractions and NADPH RapidStart reagent was purchased from Sekisui/XenoTech. Human AB serum was purchased from Sigma. For intestine and liver metabolism assays, 2.5 μM candidate compounds were incubated in 400 μg/ml of each cellular fraction (HLM, HLS9, HIM, or HIS9) in 50 mM potassium phosphate buffer (pH 7.4) containing 3 mM MgCl2 and 1 mM EDTA supplemented with NADPH RapidStart at 37° C. Samples were taken at the start of the assay, and at every 20 minutes for 2 hours. Time-point samples were precipitated with 1:1 volume of acetonitrile to quench the reaction before centrifugation at 4000×g for 20 minutes. Supernatants were analyzed for the presence of candidate prodrugs (parent molecule) and psilocin (the predicted metabolite) using Orbitrap LC-MS (Thermo Scientific) using previously described methods (Menéndez-Perdomo et al., 2021, J. Mass Spectrom., 56: e4683). The serum assays were carried out in 10% human AB serum in 50 mM potassium phosphate buffer (pH 7.4) containing 3 mM MgCl2 and 1 mM EDTA. Bovine alkaline phosphatase assays were carried out using one unit of purified enzyme in 50 mM potassium phosphate buffer (pH 7.4) containing 3 mM MgCl2 and 1 mM EDTA. Porcine esterase assays were carried out using one unit of purified enzyme in 50 mM potassium phosphate buffer (pH 7.4) containing 3 mM MgCl2 and 1 mM EDTA. Assay concentrations (μM) of both parent ‘prodrug’ molecule and psilocin metabolite, as quantified through LC-MS using routine standard curve procedures, were plotted as functions of assay time (minutes). The metabolism rate (T1/2) was determined from the metabolism curve plot using the one phase decay feature of GraphPad PRISM software (Version 9.2.0). The quantity of parent prodrug at time zero was set as 100%.
Positive controls were first tested to ensure that assays were functioning properly.

Data set [2] can be described thus: In vitro metabolic stability / psilocin release, human AB serum. It counts as in vitro ADME. The settings on record: AB serum.
Description: as §1, with “For intestine and liver metabolism assays, 2.5 μM candidate compounds were incubated in 400 μg/ml of each cellular fraction (HLM, HLS9, HIM, or HIS9) in 50 mM potassium phosphate buffer (pH 7.4) containing 3 mM MgCl2 and 1 mM EDTA supplemented with NADPH RapidStart at 37° C. Samples were taken at the start of the assay, and at every 20 minutes for 2 hours. Time-point samples were precipitated with 1:1 volume of acetonitrile to quench the reaction before centrifugation at 4000×g for 20 minutes.” left out, “The serum assays were carried out in 10% human AB serum in 50 mM potassium phosphate buffer (pH 7.4) containing 3 mM MgCl2 and 1 mM EDTA. Bovine alkaline phosphatase assays were carried out using one unit of purified enzyme in 50 mM potassium phosphate buffer (pH 7.4) containing 3 mM MgCl2 and 1 mM EDTA. Porcine esterase assays were carried out using one unit of purified enzyme in 50 mM potassium phosphate buffer (pH 7.4) containing 3 mM MgCl2 and 1 mM EDTA.” left out, “100%. […]” for “100%.”

The nature of data set [3]: Stability in enzyme-free control buffer. The format is in vitro ADME. The following applies: enzyme-free buffer pH 7.4. From the text:
A fundamental evaluation in drug development is the assessment of absorption, distribution, metabolism, excretion, and pharmacokinetics (ADME/PK) (Eddershaw et al., 2000, Drug Discovery Today 5(9): 409-414). […] Drug stability upon exposure to human liver microsomes and liver S9 cellular fractions is a common in vitro assay to approximate in vivo, liver-based drug metabolism (Richardson et al., 2016 Drug Metabolism Letters 10:83-90). First-pass metabolism is also often approximated in vitro using intestinal microsome and cellular S9 fractions (Hatley et al., 2017, Biopharmaceuticals & Drug Disposition, 38(2):155-160). […] Supernatants were analyzed for the presence of candidate prodrugs (parent molecule) and psilocin (the predicted metabolite) using Orbitrap LC-MS (Thermo Scientific) using previously described methods (Menéndez-Perdomo et al., 2021, J. Mass Spectrom., 56: e4683). […] Assay concentrations (μM) of both parent ‘prodrug’ molecule and psilocin metabolite, as quantified through LC-MS using routine standard curve procedures, were plotted as functions of assay time (minutes). The metabolism rate (T1/2) was determined from the metabolism curve plot using the one phase decay feature of GraphPad PRISM software (Version 9.2.0). The quantity of parent prodrug at time zero was set as 100%.

Data set [4] is described as follows: Mouse pharmacokinetic (PK) evaluation of drug metabolism to psilocin. The following applies: for Plasma concentration of psilocin: 24 h.

SMILES strings stand for the structures. Entries after “also recorded” stand apart in the source; their conditions may differ.

The Cmax is the maximum level reached in the sampled fluid or tissue. As for `CN(C)CCc1c[nH]c2cccc(OP(=O)(O)O)c12` [psilocybin, reference compound], the “metabolic stability / conversion to psilocin (in words)” value in data set [1] (HLM) is listed as “stable in liver fractions with no conversion to psilocin”; in data set [1] (HLS9), “stable in liver fractions with no conversion to psilocin”; in data set [2], “stable in serum with no conversion to psilocin”. Also, in data set [3], the “stability in assay buffer (in words)” value is “stability of psilocybin was confirmed in assay buffer”. For the same compound, the “Plasma concentration of administered (parent) compound” value is given as “No Peak” in data set [4] (1 mg/kg i.v., 0.5 h, individual mice); “No Peak” in data set [4] (1 mg/kg i.v., 1 h, individual mice); “No Peak” in data set [4] (1 mg/kg i.v., 2 h, individual mice); “No Peak” in data set [4] (1 mg/kg i.v., 4 h, individual mice); “No Peak” in data set [4] (1 mg/kg i.v., 6 h, individual mice); “No Peak” in data set [4] (1 mg/kg i.v., 8 h, individual mice). Further, the “tmax (parent compound in plasma)” value amounted to 5 min in data set [4] (1 mg/kg i.v., individual mice) and 5 ± 0 min in data set [4] (1 mg/kg i.v., mean ± SD). Besides, the “Plasma concentration of psilocin” value in data set [4] (1.56 mg/kg oral of administered compound, individual mice) is listed as “BLQ”; in data set [4] (3 mg/kg oral of administered compound, individual mice), “BLQ”. Further, the concentration at 5 min in data set [4] (male, C57Bl/6, mouse, plasma, intravenous, 1 mg/kg, Plasma concentration of administered (parent) compound, 1 mg/kg i.v., 5 min, mean ± SD) was found to be 144 ± 167 ng/mL. The concentration at 0.25 h in data set [4] (male, C57Bl/6, mouse, plasma, intravenous, 1 mg/kg, Plasma concentration of administered (parent) compound, 1 mg/kg i.v., 0.25 h, mean ± SD) stood at 13.2 ± 12.5 ng/mL. In data set [4] (male, C57Bl/6, mouse, plasma, intravenous, 1 mg/kg, Plasma concentration of administered (parent) compound, 1 mg/kg i.v., 0.5 h, mean ± SD), the concentration at 0.5 h worked out at 4.28 ng/mL. For the same compound, the concentration at 1 h in data set [4] (male, C57Bl/6, mouse, plasma, intravenous, 1 mg/kg, Plasma concentration of administered (parent) compound, 1 mg/kg i.v., 1 h, individual mice) amounted to 1.21 ng/mL; in data set [4] (male, C57Bl/6, mouse, plasma, intravenous, 1 mg/kg, Plasma concentration of administered (parent) compound, 1 mg/kg i.v., 1 h, mean) it was 1.21 ng/mL. In addition, the concentration at 8 h in data set [4] (male, C57Bl/6, mouse, plasma, intravenous, 1 mg/kg, Plasma concentration of administered (parent) compound, 1 mg/kg i.v., 8 h, individual mice) turned out to be 2.54 ng/mL. Also, in data set [4] (male, C57Bl/6, mouse, plasma, iv, 1 mg/kg, Cmax (parent compound in plasma), 1 mg/kg i.v., mean ± SD), the Cmax turned out to be 144 ± 167 ng/mL. The “detectability of administered compound in plasma (in words)” value in data set [4] (oral vs i.v. dosing) was “only detectable in i.v. administered animals; also recorded: not detectable in orally administered animals at any dose”.

The values above are taken from patent US11707447B1.
